Experimental data taken from US5459256A, “Lipophilic, aminohydrolase-activated prodrugs” (priority 1991, dated 1995).
“Also recorded” adds a separate entry of the source. Read-outs that look alike come from different tables or passages of the source.

Experiments:
[1] = Octanol-water partition coefficient, microscale shake-flask
Procedure: Measurement of Octanol-Water Partition Coefficients.
n-Octanol-water partition coefficients (P) were determined by a microscale shake-flask procedure, (Ford, H. et al Abstracts of Papers, 200th National Meeting of the American Chemical Society, Washington, D.C.; American Chemical Society: Washington, D.C., 1990; CARB 13) which was modification of an earlier method (Nahum, A. & Horvath, C. J. Chromatogr. 1980, 192, 315). A 20 μL aliquot of a 0.5 mg/mL DMSO solution of the dideoxynucleoside was dissolved in 1.0 mL of octanol-saturated, pH 7.0, 0.01M potassium phosphate buffer. This was mixed thoroughly with 1.0 ml of buffer-saturated n-octanol in a 2-mL Mixxor apparatus at 24°-26° C. and then allowed to stand for 15 min. The phases were separated, centrifuged at 600×g for 5 min, and the relative concentration of sample in each phase determined by HPLC analysis of a 50 μl aliquot. The partition coefficient was calculated by dividing the absolute area of the appropriate integrated peak from the octanol phase by that of the buffer phase (Table I).
Octanol/pH 7.0 buffer partition coefficients were determined using a newly developed microscale method. […] The addition of a methyl group normally increases the log P value of a compound by about 0.5.

[2] = tested on: HIV-1/IIIB (CD4^+ ATH8 cells); assay: HIV cytopathic effect inhibition assay in ATH8 cells (% protection); assay type: cell-based; conditions: for anti-HIV activity (in words): no additive
Procedure: (§1) HIV Cytopathic Effect Inhibition Assay.
(§2) The HIV cytopathic effect inhibition assay was performed as previously described. (Mitsuya, H. & Broder, S. Proc. Nat. Acad. Sci. USA 1986, 83, 1911) Briefly, 200,000 target CD4^+ ATH8 cells were exposed to cell-free HIV-1/IIIB at a dose of 43 (or 1087 for compound 1g) TCID50 (50% tissue culture infectious dose) for 1 h, resuspended in 2 ml of fresh culture media containing interleukin 2, and cultured at 37° C. with or without test compounds in 5% CO2 -containing humidified air. On day 8 in culture, the viable cells were counted by using the dye exclusion method. All compounds, including inactives, were evaluated a minimum of two times in separate experiments. Data reported in Table II are from representative tests. The % protection against the virus was determined by the following formula: 100 times [(the number of viable cells exposed to HIV-1 and cultured in the presence of the compound minus the number of viable cells exposed to HIV-1 and cultured in the absence of compound) divided by (the number of viable cells cultured alone minus the number of viable cells exposed to HIV-1 and cultured in the absence of the compound)]. The % toxicity of a compound on the target cells was determined by the following formula: 100 times [1 minus (the number of total viable cells cultured in the presence of the compound divided by the number of total viable cells cultured alone)]. Calculated percentages equal to or less than zero are expressed as 0%.
^a ATH8 cells were exposed to HIV1/IIIB per cell for 1 hr and
cultured in the presence of various concentrations of each compound. On
day 8, the total viable cells were counted. Orders of numbers in the
column for concentrations correspond to the orders of numbers in other

[3] = Toxicity on ATH8 target cells (% toxicity, dye exclusion); assay type: cell-based; conditions: human, ath8 cells
Procedure: as §1
as §2, with “(Mitsuya, H. & Broder, S. Proc. Nat. Acad. Sci. USA 1986, 83, 1911) Briefly, 200,000 target CD4^+ ATH8 cells were exposed to cell-free HIV-1/IIIB at a dose of 43 (or 1087 for compound 1g) TCID50 (50% tissue culture infectious dose) for 1 h, resuspended in 2 ml of fresh culture media containing interleukin 2, and cultured at 37° C. with or without test compounds in 5% CO2 -containing humidified air.” left out

CD4^+ ATH8 cells = assay: as above; assay type: cell-based; conditions: for % Toxicity: human
Procedure: as §1
as §2, with “(Mitsuya, H. & Broder, S. Proc. Nat. Acad. Sci. USA 1986, 83, 1911) Briefly, 200,000 target CD4^+ ATH8 cells were exposed to cell-free HIV-1/IIIB at a dose of 43 (or 1087 for compound 1g) TCID50 (50% tissue culture infectious dose) for 1 h, resuspended in 2 ml of fresh culture media containing interleukin 2, and cultured at 37° C. with or without test compounds in 5% CO2 -containing humidified air.” left out

[4] = biological target: T1, adenosine deaminase (adenosine aminohydrolase, EC 3.5.4.4) (Bos taurus, UniProt P56658); assay: Enzymatic deamination by adenosine deaminase (HPLC)
T1 sequence (P56658 1-363): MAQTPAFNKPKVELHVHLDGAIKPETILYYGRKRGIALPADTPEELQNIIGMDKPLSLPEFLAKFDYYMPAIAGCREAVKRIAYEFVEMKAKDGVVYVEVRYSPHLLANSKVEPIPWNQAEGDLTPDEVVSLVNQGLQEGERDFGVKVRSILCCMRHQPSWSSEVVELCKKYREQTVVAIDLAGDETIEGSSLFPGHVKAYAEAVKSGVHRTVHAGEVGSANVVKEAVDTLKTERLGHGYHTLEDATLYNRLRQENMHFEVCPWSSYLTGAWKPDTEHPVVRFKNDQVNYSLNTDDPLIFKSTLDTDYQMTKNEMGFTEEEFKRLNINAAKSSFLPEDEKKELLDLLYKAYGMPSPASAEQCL
Procedure: FIG. 1. Deamination of dideoxyadenosine analogues by adenosine deaminase. Hydrolysis kinetics and 2'-F-dd-ara-I formation during the incubation of 50 μM N^6 -CH3 -2'-F-dd-ara-A (1f) with 0.7 units/mL of adenosine deaminase at 37° C. A unit of adenosine deaminase is the amount of enzyme which hydrolyzes a standard substrate (e.g., adenosine) at the rate of 1.0 μmole/min at 25° C. and pH 7.5. […] Insert: Adenosine deaminase hydrolysis kinetics for 50 μM ddA and 2'-F-dd-ara-A. The hydrolysis curve for ddA has been extrapolated from kinetics obtained with 0.07 units/mL of adenosine deaminase under identical conditions.
A 50 μl aliquot of a 10 mg/ml suspension of adenosine deaminase (adenosine aminohydrolase, EC 3.5.4.4) from calf intestinal mucosa was centrifuged at 600×g for 3 min. The residue remaining after removal of the (NH4)2 SO4 supernatant was dissolved in 0.5 ml pH 7.4 tris(hydroxymethyl)-aminomethane (Tris) buffer to give an enzyme solution of 1 mg/ml (274 units/ml). […] A pH 7.4 buffer was prepared by adjusting 0.01M Tris to pH 7.4 with 0.5N HCl, The 1.0 HCl , HPLC-grade acetonitrile, monobasic potassium phosphate, sodium hydroxide and ultrapure Tris were all commercially available and were used without further purification.
Enzymatic Deamination of Adenosine Analogues. […] A 50 μL aliquot of substrate solution was diluted with 0.95 ml 0.01M Tris buffer in a 1.5-mL Eppendorf tube and equilibrated at 37° C. in a Dubnoff metabolic shaking incubator. Reaction was initiated by addition of 2.5 μL of adenosine deaminase solution (0.7 unit). At specified time intervals, a 50 μL aliquot of the reaction mixture was withdrawn and quenched by mixing with 0.45 mL cold 2 μM 2'-deoxycoformycin. This diluted sample was ultrafiltered to remove enzyme in a Centrifree Micropartition unit by centrifugation at 600×g at 4° C. in a high speed refrigerated centrifuge. The decrease in substrate concentration was monitored by HPLC analysis of the resultant ultrafiltrate (see below). The ability of 2'-deoxycoformycin to inhibit deamination under the above conditions was evaluated by adding 2 μL of 1.0 mM inhibitor to diluted substrate solutions at the time of equilibration. Reaction, sampling and analysis were carried out as above. […] Initial hydrolysis rates for each substrate concentration were measured through linear least-squares curve fitting of the concentration versus time data for reaction of the first 10% of substrate. KM and vmax values for each substrate were then determined from a graphical lineweaver-Burke plot of these initial rates (FIG. 1).
HPLC Analysis of Dideoxypurine Nucleosides.
Concentrations of dideoxynucleosides were measured by the HPLC analysis of 100 μL aliquots of ultrafiltered samples. A 4.6×250 mm 5-μm Ultrasphere-ODS column, protected by a Waters guard column packed with 37-50 μm Vydac 201SC, was eluted with 10-20% CH3 CN in 0.01M pH 7.0 phosphate buffer at a flow rate of 1.0 mL/min. Dideoxynucleosides and deamination products were detected at the appropriate wavelength of maximum absorption with a Gilson 116 variable wavelength detector. Peak identity was determined from coincidence of retention times with standards and by comparison of on-the-fly UV spectra obtained with a Perkin-Elmer LC-235 diode array detector. Peak areas and peak heights were measured simultaneously on a Spectra-Physics SP4200 computing integrator.

[5] = octanol/ph 7.0 buffer, pH 7, Log P
[6] = octanol/ph 7.0 buffer, pH 7, octanol/pH 7.0 buffer partition coefficient (P)
[7] = without dCF, read-out: % Toxicity
[8] = additive alone, no test compound

In the case of `Cc1cn([C@H]2C[C@H](N=[N+]=[N-])[C@@H](CO)O2)c(=O)[nH]c1=O` [AZT, reference compound], the “partitioning (in words)” value ([1]; octanol and pH 7.0 buffer) is reported as “partitions into octanol and pH 7.0 buffer almost equally” and the “Log P” value ([1]; octanol/pH 7.0 buffer, 24°-26° C., Table I mean ± standard deviation of three determinations) is reported as 0.05 ± 0.01.
In the case of `OC[C@@H]1C[C@H](F)[C@H](n2cnc3cncnc32)O1` [Compound 1c, 9-(2',3'-dideoxy-2'-fluoro-β-D-arabinofuranosyl)-9-H-purine], the logD [1, 5] is reported as -0.4 ± 0.01 and the “anti-HIV activity (in words)” value ([2]; ATH8 cells) is reported as “abolished activity”.
In the case of `Cc1nc(N)c2ncn([C@@H]3O[C@H](CO)C[C@@H]3F)c2n1` [Compound 1d, 2-methyl-9-(2', 3'-dideoxy-2'-fluoro-β-D-arabinofuranosyl)adenine], the logD ([1]; octanol/ph 7.0 buffer, pH 7) is reported as 0.12 ± 0.02 and the “anti-HIV activity (in words)” value ([2]; ATH8 cells) is reported as “the methyl group in the 2-position abolished activity”.
For `CNc1nc(C)nc2c1ncn2[C@@H]1O[C@H](CO)C[C@@H]1F` [Compound 1e, 2,N^6 -Dimethyl-9-(2',3'-dideoxy-2'-fluoro-β-D-arabinofuranosyl)adenine], the logD [1, 5] was 0.64 ± 0.01 and the “anti-HIV activity (in words)” value ([2]; ATH8 cells) was “the methyl group in the 2-position abolished activity”.
In the case of `O=C(Nc1ncnc2c1ncn2[C@@H]1O[C@H](CO)C[C@@H]1F)c1ccccc1` [Compound 1g, N^6-benzoyl-9-(2',3'-dideoxy-2'-fluoro-β-D-arabinofuranosyl)adenine], the “Log P” value ([1]; octanol/ph 7.0 buffer, pH 7) is reported as 0.70 ± 0.02, the logD [1, 5] is reported as 0.73 and the logD [1, 6] is reported as 0.732. For the same compound, the “anti-HIV activity (in words)” value ([2]; ATH8 cells) was “preservation of modest activity”, the cytotoxicity at 192 h, 5 µM ([3]; 5 μM, without dCF) was 2% and the cytotoxicity at 192 h, 20 µM [3, 7] was 0%. It also gave a cytotoxicity at 192 h, 50 µM ([3]; 50 μM, without dCF, read-out: % Toxicity) of 0% and a cytotoxicity at 192 h, 100 µM ([3]; 100 μM, without dCF, read-out: % Toxicity) of 8%.
With `Cc1nc2c(N)ncnc2n1[C@@H]1O[C@H](CO)C[C@@H]1F` [Compound 1h, 8-Methyl-9-(2',3'-dideoxy-2'-fluoro-β-D-arabinofuranosyl)adenine] the logD [1, 5] was 0.1 ± 0.01.
For `OC[C@@H]1C[C@H](F)[C@H](n2cnc3c(Cl)ncnc32)O1` [Compound 1i, 6-Chloro-9-(2',3'-dideoxy-2-fluoro-β-D-arabinofuranosyl)purine], the logD ([1]; octanol/ph 7.0 buffer, pH 7) was 0.32 ± 0.02, the “protection to HIV-infected ATH8 cells” value ([2]; ATH8 cells, concentration not given) was “ca. 50%” and the “anti-HIV activity in the presence of dCF (in words)” value ([2]; ATH8 cells, dCF added) was “protection was either abolished or greatly decreased; also recorded: can have activity abolished”. For the same compound, the “anti-HIV activity (in words)” value ([2]; ATH8 cells) was “reproducible, albeit unspectacular, activity; also recorded: only moderate anti-HIV activity”, the cytotoxicity at 192 h, 50 µM ([3]; % Toxicity) was 46% and the cytotoxicity at 192 h, 100 µM ([3]; % Toxicity) was 52%. The “% Toxicity” value (CD4^+ ATH8 cells; 11520 min) was 14%, the “% Toxicity” value (CD4^+ ATH8 cells; ath8 cells, 192 h, 50 µM) was 56% and the “% Toxicity” value (CD4^+ ATH8 cells; ath8 cells, 192 h, 100 µM) was 72%. The “Measured Relative Rate” value ([4]; 50 μM substrate, pH 7.4 and 37° C., ddA = 100) was 0.06, the vmax ([4]; pH 7.4 and 37° C.) was 2.6 × 10^-2 μmol/min/U and the “hydrolysis by ADA, times slower than ddA” value ([4]; vs ddA, 50 μM substrate) was “ca. 1700 times slower”.
With `Nc1c2ncn([C@@H]3O[C@H](CO)C[C@@H]3F)c2nc[n+]1[O-]` [Compound 21, 9-(2',3'-Dideoxy-2'-fluoro-β-D-arabinofuranosyl)adenine-1-oxide] the logD ([1]; octanol/ph 7.0 buffer, pH 7) was -1.38, the logD [1, 6] was -1.4 and the “anti-HIV activity (in words)” value ([2]; ATH8 cells) was “abolished activity”. For the same compound, the “deamination by ADA (in words)” value ([4]; 0.7 U/mL ADA, 37° C.) was “no deamination was observed”.
In the case of `OC[C@H]1O[C@@H](n2cnc3c2NC=NC[C@H]3O)C[C@@H]1O` [dCF, 2'-Deoxycoformycin, reference compound], the “protection by additive alone (in words)” value [2, 8] is reported as “did not produce significant toxicity or protection of ATH8 cells against the effects of HIV-1” and the “toxicity / viability effect of additive alone (in words)” value (CD4^+ ATH8 cells; [8]) is reported as “did not produce significant toxicity”.
With `O=c1[nH]cnc2c1ncn2[C@H]1CC[C@@H](CO)O1` [ddI, dideoxyinosine, reference compound] the inhibition at 20 µM ([2]; Human immunodeficiency virus 1, IIIB, ATH-8, 192 h, 20 μM, without dCF) was 100% and the cytotoxicity at 192 h, 20 µM [3, 7] was 0%.
